Measured values reported in US9839642B2, “Beta-tetrazolyl-propionic acids as metallo-beta-lactamase inhibitors” (priority 2014, dated 2017).
Read-outs that look alike come from different tables or passages of the source.

What was measured:
[1] = test system: Escherichia coli expressing NDM-1 (CLB30016); experiment: Antibiotic potentiation activity: synergistic concentration (MITC95) with imipenem, growth by OD600; type: cell-based
Summary of the method: (§1)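 Colonies from overnight agar plates (35 °C) were suspended in saline and diluted 1:100 into 1.1× CAMHB. Inhibitor (final 200 μM to 0.195 μM) was combined with imipenem at 1 or 4 μg/ml, incubated 22–24 h at 35 °C, and absorbance read; MITC95 is the lowest inhibitor concentration giving 95% growth inhibition.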

[2] = test system: Serratia marcescens expressing IMP-1 (CL5741); experiment: as above; type: cell-based
Summary of the method: as §1

[3] = test system: Klebsiella pneumoniae expressing VIM-1 (IHMA599644); experiment: as above; type: cell-based
Summary of the method: as §1

IMP-1 = IMP-1 (Serratia marcescens, UniProt P52699); experiment: Enzyme activity: determination of IC50, fluorescence assay with CCF2-FA substrate; type: biochemical; conditions: CCF2-FA 1.25 μM, 2 hours at 25° C., read-out: IMP1 IC50
Chain of IMP-1 (P52699 19-246, looked up, species assumed): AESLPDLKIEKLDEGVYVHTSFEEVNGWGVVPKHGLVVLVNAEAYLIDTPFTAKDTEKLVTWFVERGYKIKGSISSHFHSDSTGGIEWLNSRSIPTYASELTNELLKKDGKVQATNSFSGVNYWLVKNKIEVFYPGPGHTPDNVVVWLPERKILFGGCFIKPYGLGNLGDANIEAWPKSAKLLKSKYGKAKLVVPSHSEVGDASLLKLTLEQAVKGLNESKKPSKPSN
Summary of the method: (§2)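 Enzyme at 1 pM (NDM-1), 2 pM (IMP-1) or 30 pM (VIM-1) was incubated with inhibitor (20 μM to 0.00063 μM) and 1.25 μM CCF2-FA in 100 mM KH2PO4 pH 7, 0.005% Tween-20, 10 μM ZnSO4 for 2 hours at 25° C. Fluorescence was read at ex 405/em 460 nm; IC50 from 4-parameter fit.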

NDM-1 = NDM-1 (Klebsiella pneumoniae, UniProt C7C422); experiment: as above; type: biochemical; conditions: CCF2-FA 1.25 μM, 2 hours at 25° C., read-out: NDM1 IC50
Chain of NDM-1 (C7C422 29-270, looked up, species assumed): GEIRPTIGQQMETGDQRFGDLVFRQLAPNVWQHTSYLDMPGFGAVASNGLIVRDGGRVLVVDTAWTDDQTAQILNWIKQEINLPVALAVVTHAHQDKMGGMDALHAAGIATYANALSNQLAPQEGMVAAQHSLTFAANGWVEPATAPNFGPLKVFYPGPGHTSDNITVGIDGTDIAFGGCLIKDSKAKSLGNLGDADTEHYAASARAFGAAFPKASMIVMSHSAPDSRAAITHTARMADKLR
Summary of the method: as §2

VIM-1 = VIM-1 (Pseudomonas aeruginosa, UniProt A0A0F7KYQ8); experiment: as above; type: biochemical; conditions: CCF2-FA 1.25 μM, 2 hours at 25° C., read-out: VIM1 IC50
Summary of the method: as §2

[4] = 95% inhibition of bacterial growth, strain CLB30016
[5] = 95% inhibition of bacterial growth, strain CL5741
[6] = 95% inhibition of bacterial growth, strain IHMA599644
[7] = E. coli CLB30016 (NDM-1), 95% inhibition of growth
[8] = S. marcescens CL5741 (IMP-1), 95% inhibition of growth
[9] = K. pneumoniae IHMA599644 (VIM-1), 95% inhibition of growth

Row | SMILES | NDM1 EC30016 MITC95 [1, 4] [µM] | IMP1 SM5741 MITC95 [2, 5] [µM] | VIM1 KP599644 MITC95 [3, 6] [µM] | IC50 (IMP-1; enzyme 2 pM) [nM] | IC50 (NDM-1; enzyme 1 pM) [nM] | IC50 (VIM-1; enzyme 30 pM) [nM] | NDM1 EC30016 MITC95 [1, 7] [µM] | IMP1 SM5741 MITC95 [2, 8] [µM] | VIM1 KP599644 MITC95 [3, 9] [µM] | IC50 (IMP-1; IMP-1 enzyme 2 pM) [nM] | IC50 (NDM-1; NDM-1 enzyme 1 pM) [nM] | IC50 (VIM-1; VIM-1 enzyme 30 pM) [nM]
1 | CCC[C@H](C(=O)O)[C@H](Cc1ccc(N2CCN(CCO)CC2)cc1)c1nn[nH]n1 [Example 225, (2S)-2-[(1S)-2-{4-[4-(2-hydroxyethyl)piperazin-1-yl]phenyl}-1-(2H-tetrazol-5-yl)ethyl]pentanoic acid] | 25 | 12.5 | 50 | 280 | 110 | 66 |  |  |  |  |  | 
2 | CC(C)C[C@H](C(=O)O)[C@H](Cc1ccc(N2CC(N3CCN(C)CC3)C2)nc1)c1nnn[nH]1 [Example 332, (2S)-4-methyl-2-[(1S)-2-{6-[3-(4-methylpiperazin-1-yl)azetidin-1-yl]pyridin-3-yl}-1-(1H-tetrazol-5-yl)ethyl]pentanoic acid] |  |  |  |  |  |  | 4.7 | 12.5 | 50 | 540 | 160 | 24
3 | CCC[C@H](C(=O)O)[C@H](Cc1cccc2sc(N)nc12)c1nn[nH]n1 [Example 155, (S)-2-((S)-2-(2-aminobenzo[d]thiazol-4-yl)-1-(2H-tetrazol-5-yl)ethyl)pentanoic acid] | 16 | 18.8 | 18.8 | 290 | 12 | 7.3 |  |  |  |  |  | 
4 | CCC[C@H](C(=O)O)[C@H](Cc1ccc(C2=CCNC2)nc1)c1nnn[nH]1 [Example 164, (2S)-2-[(1S)-2-[6-(2,5-dihydro-1H-pyrrol-3-yl)pyridin-3-yl]-1-(1H-tetrazol-5-yl)ethyl]pentanoic acid] | 9.4 | 50 | 18.8 | 13000 | 530 | 3.9 |  |  |  |  |  | 
5 | CCC[C@H](C(=O)O)[C@H](Cc1ccc(NCc2ccc(O)cc2)nc1)c1nnn[nH]1 [Example 132, (S)-2-((S)-2-(6-((4-hydroxybenzyl)amino)pyridin-3-yl)-1-(1H-tetrazol-5-yl)ethyl)pentanoic acid] | 9.4 | 38 | 25 | 1500 | 160 | 31 |  |  |  |  |  | 
6 | CCC[C@H](C(=O)O)[C@H](Cc1ccc(NCC2CCCN2CC)cc1)c1nn[nH]n1 (stereo partly drawn) [Example 215, (2S)-2-[(1S)-2-(4-{[(1-ethylpyrrolidin-2-yl)methyl]amino}phenyl)-1-(2H-tetrazol-5-yl)ethyl]pentanoic acid] | 12.5 | 18.8 | 50 | 1100 | 170 | 29 |  |  |  |  |  | 
7 | CCC[C@H](C(=O)O)[C@H](Cc1ccc(C(=O)NCCN)cc1)c1nnn[nH]1 [Example 276, (2S)-2-[(1S)-2-{4-[(2-aminoethyl)carbamoyl]phenyl}-1-(1H-tetrazol-5-yl)ethyl]pentanoic acid] |  |  |  |  |  |  | 12.5 | 100 | 25 | 5400 | 1100 | 8.4
8 | CC(C)C[C@H](C(=O)O)[C@H](Cc1ccc(-c2ccnc(N)c2)cn1)c1nn[nH]n1 [Example 179, (2S)-2-[(1S)-2-(2′-amino-3,4′-bipyridin-6-yl)-1-(2H-tetrazol-5-yl)ethyl]-4-methylpentanoic acid] | 12.5 | 38 | 50 | 1300 | 66 | 24 |  |  |  |  |  | 
9 | CC(C)C[C@H](C(=O)O)[C@H](Cc1ccc(N2CC(O)(C(F)(F)F)C2)nc1)c1nnn[nH]1 [Example 338, (2S)-2-[(1S)-2-{6-[3-hydroxy-3-(trifluoromethyl)azetidin-1-yl]pyridin-3-yl}-1-(1H-tetrazol-5-yl)ethyl]-4-methylpentanoic acid] |  |  |  |  |  |  | 31 | 9.4 | 150 | 200 | 110 | 38
10 | CC(C)C[C@H](C(=O)O)[C@H](Cc1ccc(Oc2ccccc2C2CCCN2)nc1)c1nn[nH]n1 (stereo partly drawn) [Example 374, (2S)-4-methyl-2-[(1S)-2-[6-(2-pyrrolidin-2-ylphenoxy)pyridin-3-yl]-1-(2H-tetrazol-5-yl)ethyl]pentanoic acid] |  |  |  |  |  |  | 9.4 | 9.4 | 62 | 90 | 12 | 3
11 | Nc1ccc(C[C@H](c2nnn[nH]2)[C@H](CC(F)(F)F)C(=O)O)cn1 [Example 435, (S)-2-((S)-2-(6-aminopyridin-3-yl)-1-(1H-tetrazol-5-yl)ethyl)-4,4,4-trifluorobutanoic acid] |  |  |  |  |  |  | 0.7813 | 50 | 2.344 | 7740 | 432 | 13.6
12 | CCC[C@H](C(=O)O)[C@H](Cc1cccc(-c2cccc(OC3CCNCC3)n2)c1)c1nn[nH]n1 [Example 348, (2S)-2-[(1S)-2-{3-[6-(piperidin-4-yloxy)pyridin-2-yl]phenyl}-1-(2H-tetrazol-5-yl)ethyl]pentanoic acid] |  |  |  |  |  |  | 18.8 | 6.2 | 18.8 | 540 | 22 | 2.2
13 | CCC[C@H](C(=O)O)[C@H](Cc1ccc(NCCS(N)(=O)=O)cn1)c1nnn[nH]1 [Example 149, 2-((2S,3S)-3-carboxy-2-(1H-tetrazol-5-yl)hexyl)-5-((2-sulfamoylethyl)amino)pyridin-1-ium] | 0.39 | 38 | 18.8 | 1600 | 170 | 98 |  |  |  |  |  | 
14 | CCC[C@H](C(=O)O)[C@H](Cc1ccc(C2CCN(C=N)C2)nc1)c1nnn[nH]1 (stereo partly drawn) [Example 410, (2S)-2-((1S)-2-(6-(1-(iminomethyl)pyrrolidin-3-yl)pyridin-3-yl)-1-(1H-tetrazol-5-yl)ethyl)pentanoic acid] |  |  |  |  |  |  | 7.813 | 75 | 25 | 6030 | 417 | 6.23
15 | CC(C)C[C@H](C(=O)O)[C@H](Cc1ccc(Oc2ccnc(N3CCNCC3)c2)nc1)c1nn[nH]n1 [Example 379, (2S)-4-methyl-2-[(1S)-2-{6-[(2-piperazin-1-ylpyridin-4-yl)oxy]pyridin-3-yl}-1-(2H-tetrazol-5-yl)ethyl]pentanoic acid] |  |  |  |  |  |  | 9.4 | 16 | 100 | 370 | 32 | 7.1
16 | CCC[C@H](C(=O)O)[C@H](Cc1csc(N)n1)c1nnn[nH]1 [Example 150, 4-((2S,3S)-3-carboxy-2-(1H-tetrazol-5-yl)hexyl)thiazol-2-aminium] | 1.6 | >200 | 25 | > 20000 | 480 | 300 |  |  |  |  |  | 
